Assay results: US6569638B1, “Method for screening compounds for the treatment of neoplasia” (Cell Pathways, Inc, priority 2000, dated 2003)
Like-named read-outs stand apart in the source and are kept apart here.

Key:
[1] = molecular target: T1, GST-cGB-PDE5 fusion protein (cGMP binding sites of human PDE5A) (Homo sapiens, UniProt O76074); test: cGMP binding assay (3H-cGMP competition)
T1 construct: made in house; host or cells: E. coli BL21 (DE3)

[2] = test system: PKG in SW480 colon cancer cells; test: PKG assay of drug-treated cell lysates (GST-cGB-PDE5 solid phase substrate); type: cell-based, human; details: 48 hrs, exisulind 200, 400, 600 μM, E4021 0.1, 1, 10 μM, with and without added cGMP
Method: To test the effect of cGMP-specific PDE inhibition on neoplasia containing the APC mutation, SW480 colon cancer cells were employed. SW 480 is known to contain the APC mutation. About 5 million SW480 cells in RPMI 5% serum are added to each of 8 dishes:
2-10 cm dishes—30 μL DMSO vehicle control (without drug),
3-10 cm dishes—200 μM, 400 μM, 600 μM exisulind in DMSO, and
The dishes are incubated for 48 hrs at 37° C. in 5% CO2 incubator.
The liquid media are aspirated from the dishes (the cells will attach themselves to the dishes). The attached cells are washed in each dish with cold PBS, and 200 μL cell lysis buffer (i.e., 50 mM Tris-HCl, 1% NP-40, 150 mM NaCl, 1 mM EDTA, 1 mM Na3VO4, 1 mM NaF, 500 μM IBMX with proteinase inhibitors) is added to each dish. Immediately after the cell lysis buffer is added, the lysed cells are collected by scraping the cells off each dish. The cell lysate from each dish is transferred to a microfuge tube, and the microfuge tubes are incubated at 4° C. for 15 minutes while gently agitating the microfuge tubes to allow the cells to lyse completely. […]
For each control or drug cell lysate sample to be evaluated, the reaction is started by adding phosphorylation buffer containing 10 μCi ^32P-γ-ATP solution (200 μM ATP, 4.5 mM MgCl; 5 mM KH2PO4; 5 mM K2HPO4;) to each mixture. […]

[3] = test system: JNK1 in SW480 colon cancer cells; test: JNK1 immunoprecipitation in vitro kinase assay with GST-c-Jun(1-79); type: cell-based, human; details: for inhibition of Compound B-induced JNK1 activation: SW480 cells pre-treated 2 μM for 2 hours, then Compound B 1 or 10 μM for one hour; for JNK1 activation by cGMP modulators: SW480 cells, one hour, dbcGMP 500 μM, dbcAMP 500 μM, YC-1 50 μM, MY-5445 50 μM, dipyridamole 10 μM
Method: The cells were lysed, JNK1 immunoprecipitated with an anti-JNK1 antibody, and the immunoprecipitate (“IP”) assayed for in vitro kinase activity with GST-c-Jun(1-79) as the substrate. The experiments were repeated three times with similar results. Fold activation was measured using a Phosphor Imager.
FIG. 1B: SW480 cells were treated with Compound A (1 μM) for the indicated time periods and in vitro JNK1 kinase activity was determined as described above.
FIG. 2A SW480 cells were treated with either DMSO (−) or Compound A, 0.1 μM; dbcGMP, 500 μM; YC-1, 50 μM; MY-5445, 50 μM; dipyridamole, 10 μM or dbcAMP, 500 μM for one hour. The cells were lysed, JNK1 immunoprecipitated, and the IP assayed for in vitro kinase activity as described in FIG. 1A.
FIG. 2B SW480 cells were pre-treated with either DMSO, KT5720 (2 μM) or Rp-8-pCPT-cGMPS (2 μM) for 2 hours and then treated with Compound B (0, 1 or 10 μM) for one hour. The cells were lysed and assayed for JNK1 activation in the IP as described above.
These concentrations were chosen since they provided optimal induction of apoptosis. Endogenous JNK1 was immunoprecipitated with anti-JNK1 antibody and in vitro kinase assays were performed with GST-c-Jun(1-79) as the substrate. […]
However, the precise role of PKG in signal transduction pathways is not known. […] As a control, KT5720 was used as a protein kinase A (“PKA”)-specific inhibitor. SW480 cells were treated with either DMSO, KT5720 (2 μM) or Rp-8-pCPT-cGMPS (2 μM) for 2 hours and then treated with either DMSO or Compound B (1 or 10 μM) for one hour. Cell extracts were collected and assayed for JNK1 activation.

PARP in SW480 cells = test: PARP cleavage by Western blot; type: cell-based, human; details: SW480 cells pre-incubated 2 μM for 2 hours, then Compound A 1 μM 2 days
Method: SW480 cells were pre-treated with either DMSO (−) or Rp-8-pCPT-cGMPS (2 μM) for 2 hours and then treated with either DMSO (−) or Compound A (1 μM). Both the floating and attached cells were collected after 2 days, and the cell lysates were assayed for PARP cleavage by Western blotting with anti-PARP antibody. Fold increase in PARP cleavage was measured by densitometry of the 85 kD fragment.
Finally, we investigated whether activation of the PKG pathway is required for the induction of apoptosis by SAANDs. SW480 cells were treated with either DMSO or the PKG inhibitor Rp-8-pCPT-cGMPS (2 μM) for 2 hours and then the cells were treated with either DMSO or Compound A (1 μM) for 2 days. Both the floating and attached cells were collected, and the cell lysates were assayed for poly (ADP-ribose) polymerase (PARP) cleavage by Western blotting with an anti-PARP antibody. PARP is a 116 kD nuclear enzyme that converts NAD to nicotinamide and protein-linked ADP-ribose polymers, which are important for DNA repair and genomic maintenance. In cells that are undergoing apoptosis the 116 kD PARP protein is cleaved by caspase-3 into 85 and 25 kD fragments, thus resulting in loss of normal PARP function. This inactivation of PARP apparently prevents depletion of cellular levels of NAD and ATP, which are thought to be required for later events in apoptosis.

native bovine PDE5 = native bovine PDE5 (Bos taurus, UniProt Q28156); details: read-out: Kd of cGMP binding; cited from earlier work
[4] = at high concentration (100 μM) against cGMP 2 μM

T1 sequence (O76074 46-539 limits assumed): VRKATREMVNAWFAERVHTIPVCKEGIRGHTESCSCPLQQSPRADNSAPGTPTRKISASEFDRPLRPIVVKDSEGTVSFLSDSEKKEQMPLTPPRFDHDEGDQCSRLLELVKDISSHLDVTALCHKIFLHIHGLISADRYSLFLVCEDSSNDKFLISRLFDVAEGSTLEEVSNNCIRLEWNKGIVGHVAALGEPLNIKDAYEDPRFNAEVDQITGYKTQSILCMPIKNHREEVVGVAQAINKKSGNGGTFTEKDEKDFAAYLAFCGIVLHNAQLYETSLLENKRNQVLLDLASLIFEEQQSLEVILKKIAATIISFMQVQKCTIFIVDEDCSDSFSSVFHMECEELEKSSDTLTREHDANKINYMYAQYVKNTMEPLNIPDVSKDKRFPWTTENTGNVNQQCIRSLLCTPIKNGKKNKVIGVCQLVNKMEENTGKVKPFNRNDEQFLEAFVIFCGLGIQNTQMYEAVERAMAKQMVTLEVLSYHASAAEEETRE

Compound: CCCCOC1C2OP(=O)(O)OCC2OC1n1cnc2c(N)ncnc21 (stereo not drawn) [2′-O-butyl-cAMP]
- competition with cGMP for the cGMP binding sites of GST-cGB-PDE5 ([1]; 3H-cGMP 2 μM, 22° C., 1 hour): did not compete with cGMP in binding

Compound: CCCCOC1C2OP(=O)(O)OCC2OC1n1cnc2c(=O)[nH]c(N)nc21 (stereo not drawn) [2′-O-butyl-cGMP]
- competition with cGMP for the cGMP binding sites of GST-cGB-PDE5 ([1]; 3H-cGMP 2 μM, 22° C., 1 hour): did not compete with cGMP in binding

Compound: Nc1nc2c(nc(Br)n2[C@@H]2O[C@@H]3COP(=O)(O)O[C@H]3[C@H]2O)c(=O)[nH]1 [Compound 8-bromo-cGMP, 8-bromo-cGMP]
- competition with cGMP for the cGMP binding sites of GST-cGB-PDE5 [1, 4]: can partially compete with cGMP

Compound: O=C([O-])C1CCN(c2nc(NCc3ccc4c(c3)OCO4)c3cc(Cl)ccc3n2)CC1.[Na+] [Compound E4021]
- PKG activity relative to control [2]: do not exhibit PKG activation relative to control
- competition with cGMP for the cGMP binding sites of GST-cGB-PDE5 ([1]; 3H-cGMP 2 μM, 22° C., 1 hour): None of the PDE5 inhibitors showed any competition with cGMP

Compound: Nc1ncnc2c1ncn2[C@@H]1O[C@@H]2COP(=O)(O)O[C@H]2[C@H]1O [Cyclic AMP]
- competition with cGMP for the cGMP binding sites of GST-cGB-PDE5 [1]: did not compete with cGMP in binding

Compound: O=c1[nH]cnc2c1ncn2[C@@H]1O[C@@H]2COP(=O)(O)O[C@H]2[C@H]1O [Cyclic IMP, cyclic IMP]
- competition with cGMP for the cGMP binding sites of GST-cGB-PDE5 [1, 4]: can partially compete with cGMP

Compound: CCCCCCOC(=O)[C@]1(O)C[C@@H]2O[C@@]1(C)n1c3ccccc3c3c4c(c5c6ccccc6n2c5c31)C(=O)NC4 [KT5720]
- inhibition of Compound B-induced JNK1 activation [3]: no inhibitory activity

Compound: Clc1cccc(Nc2nnc(-c3ccccc3)c3ccccc23)c1 [MY-5445, 1-(3-chloroanilino)-4-phenyphthalazine]
- JNK1 activation by cGMP modulators [3]: also activated JNK1

Compound: Nc1nc2c(nc(Sc3ccc(Cl)cc3)n2[C@@H]2O[C@@H]3CO[P@@](=O)(S)O[C@H]3[C@H]2O)c(=O)[nH]1 [Rp-8-pCPT-cGMP, reference compound]
- inhibition of Compound A-induced PARP cleavage (PARP in SW480 cells): significantly inhibited
- inhibition of Compound B-induced JNK1 activation [3]: strongly inhibited

Compound: OCc1ccc(-c2nn(Cc3ccccc3)c3ccccc23)o1 [YC-1]
- JNK1 activation by cGMP modulators [3]: also activated JNK1

Compound: Nc1ccn([C@@H]2O[C@@H]3COP(=O)(O)O[C@H]3[C@H]2O)c(=O)n1 [cCMP, cyclic CMP]
- competition with cGMP for the cGMP binding sites of GST-cGB-PDE5 ([1]; 3H-cGMP 2 μM, 22° C., 1 hour): did not compete with cGMP in binding

Compound: Nc1nc2c(ncn2[C@@H]2O[C@@H]3COP(=O)(O)O[C@H]3[C@H]2O)c(=O)[nH]1 [cGMP, cyclic 3′,5′-guanosine monophosphate]
- Kd (native bovine PDE5): 1.3 µM
- Kd [1]: 1.6 ± 0.2 µM
- competition with cGMP for the cGMP binding sites of GST-cGB-PDE5 ([1]; 3H-cGMP 2 μM, 22° C., 1 hour): specifically binds GST-cGB-PDE5 protein

Compound: O=c1ccn([C@@H]2O[C@@H]3COP(=O)(O)O[C@H]3[C@H]2O)c(=O)[nH]1 [cUMP, cyclic UMP]
- competition with cGMP for the cGMP binding sites of GST-cGB-PDE5 ([1]; 3H-cGMP 2 μM, 22° C., 1 hour): did not compete with cGMP in binding

Compound: CCCC(=O)Nc1ncnc2c1ncn2[C@@H]1O[C@@H]2COP(=O)(O)O[C@H]2[C@H]1OC(=O)CCC [dbcAMP, dibutyryladenosine 3′:5′-cyclic monophosphate]
- JNK1 activation by cGMP modulators [3]: inactive

Compound: CCCC(=O)Nc1nc2c(ncn2C2OC3COP(=O)([O-])OC3C2OC(=O)CCC)c(=O)[nH]1.[Na+] (stereo not drawn) [dbcGMP, Dibutyrylguanosine 3′:5′-cyclic monophosphate]
- JNK1 activation by cGMP modulators [3]: activated JNK1

Compound: OCCN(CCO)c1nc(N2CCCCC2)c2nc(N(CCO)CCO)nc(N3CCCCC3)c2n1 [dipyridamole]
- JNK1 activation by cGMP modulators [3]: also activated JNK1

Compound: CCCOc1ccccc1-c1nc2nn[nH]c2c(=O)[nH]1 [zaprinast]
- competition with cGMP for the cGMP binding sites of GST-cGB-PDE5 ([1]; 3H-cGMP 2 μM, 22° C., 1 hour): None of the PDE5 inhibitors showed any competition with cGMP
